Measurements reported in patent US20050282159A1, “Rpob gene of streptomyces, primer specific to streptomyces, and identification method of streptomyces having rifampin resistance or sensitivity by using the same” (priority 2001, published 2005).

What was measured:
Assay in all cases: rifampin-sensitive test on Bennet solid media
Assay type in all cases: cell-based
Set-up in all cases: key: “(+)” indicates a genotype with rifampin-resistance; “(−)” indicates a genotype with rifampin-susceptibility
S. albofaciens KCTC 9747 = conditions: TCG (TCC) genotype, 25 ug/ml rifampin, 72 hr
Experimental: (§1) The 47 strains were respectively cultured at 28° C. for 72 hr in Bennet liquid media. The culture solution was then inoculated on Bennet solid media (yeast extract 1 g/L, Beef extract 1 g/L, Tryptone 2 g/L, Glycerol 10 g/L, Agar 15 g/L) containing 25 ug/ml rifampin, and after incubation for 72 hr, rifampin-resistance was tested.

[1] = tested on: S. chrysomallus KCTC 9705; conditions: TCG (TCC) genotype, 25 ug/ml rifampin, 72 hr
Experimental: as §1

[2] = tested on: S. celluloflavus KCTC 9702; conditions: TCG (TCC) genotype, 25 ug/ml rifampin, 72 hr
Experimental: as §1

[3] = tested on: S. albogriseolus KCTC 9773; conditions: AAC genotype, 25 ug/ml rifampin, 72 hr
Experimental: as §1

S. armeniacus KCTC 9120 = conditions: AAC genotype, 25 ug/ml rifampin, 72 hr
Experimental: as §1

S. coelicolor KCTC 9005 = conditions: AAC genotype, 25 ug/ml rifampin, 72 hr
Experimental: as §1

[4] = tested on: S. cinnamonensis KCTC 9708; conditions: TCG (TCC) genotype, 25 ug/ml rifampin, 72 hr
Experimental: as §1

S. plicatus KCTC 9040 = conditions: AAC genotype, 25 ug/ml rifampin, 72 hr
Experimental: as §1

[5] = tested on: S. bambergiensis KCTC 9019; conditions: TCG (TCC) genotype, 25 ug/ml rifampin, 72 hr
Experimental: as §1

S. aminophilus KCTC 9673 = conditions: AAC genotype, 25 ug/ml rifampin, 72 hr
Experimental: as §1

S. flaveolus KCTC 9022 = conditions: AAC genotype, 25 ug/ml rifampin, 72 hr
Experimental: as §1

S. pulveraceus KCTC 9766 = conditions: AAC genotype, 25 ug/ml rifampin, 72 hr
Experimental: as §1

[6] = tested on: S. phaeochromogenes KCTC 9763; conditions: AAC genotype, 25 ug/ml rifampin, 72 hr
Experimental: as §1

[7] = tested on: S. cuspidosporus KCTC 9718; conditions: AAC genotype, 25 ug/ml rifampin, 72 hr
Experimental: as §1

S. echinoruber KCTC 9725 = conditions: AAC genotype, 25 ug/ml rifampin, 72 hr
Experimental: as §1

S. alboniger KCTC 9014 = conditions: TCG (TCC) genotype, 25 ug/ml rifampin, 72 hr
Experimental: as §1

[8] = tested on: S. griseus griseus KCTC 9080; conditions: AAC genotype, 25 ug/ml rifampin, 72 hr
Experimental: as §1

S. flavofuscus KCTC 9737 = conditions: AAC genotype, 25 ug/ml rifampin, 72 hr
Experimental: as §1

S. albus KCTC 1082 = conditions: AAC genotype, 25 ug/ml rifampin, 72 hr
Experimental: as §1

[9] = tested on: S. cinereoruber KCTC 9707; conditions: TCG (TCC) genotype, 25 ug/ml rifampin, 72 hr
Experimental: as §1

[10] = tested on: S. chattanoogensis KCTC 1087; conditions: TCG (TCC) genotype, 25 ug/ml rifampin, 72 hr
Experimental: as §1

S. almquistii KCTC 9751 = conditions: TCG (TCC) genotype, 25 ug/ml rifampin, 72 hr
Experimental: as §1

[11] = tested on: S. albireticuli KCTC 9685; conditions: TCG (TCC) genotype, 25 ug/ml rifampin, 72 hr
Experimental: as §1

S. ederensis KCTC 9726 = conditions: AAC genotype, 25 ug/ml rifampin, 72 hr
Experimental: as §1

S. abikoensis KCTC 9662 = conditions: TCG (TCC) genotype, 25 ug/ml rifampin, 72 hr
Experimental: as §1

S. galilaeus KCTC 1919 = conditions: AAC genotype, 25 ug/ml rifampin, 72 hr
Experimental: as §1

[12] = tested on: S. antimycoticus KCTC 9694; conditions: TCG (TCC) genotype, 25 ug/ml rifampin, 72 hr
Experimental: as §1

Measured: genotype (rifampin-resistance or susceptibility)

CO[C@H]1/C=C/O[C@@]2(C)Oc3c(C)c(O)c4c(O)c(c(/C=N/N5CCN(C)CC5)c(O)c4c3C2=O)NC(=O)/C(C)=C\C=C\[C@H](C)[C@H](O)[C@@H](C)[C@@H](O)[C@@H](C)[C@H](OC(C)=O)[C@@H]1C [rifampin]
−: S. albofaciens KCTC 9747 | [1] | [2] | [4] | [5] | S. alboniger KCTC 9014 | [9] | [10] | S. almquistii KCTC 9751 | [11] | S. abikoensis KCTC 9662 | [12]
+: all other assays above
